Reference: patent US12186337B2 (priority 2009, dated 2025)

Settings: pH 10

In the case of `O=NO` [sodium nitrite], the “pH of 10% solution at 25° C.” value is reported as 7.9.
